Results from ChEMBL document CHEMBL1201862, “PubChem BioAssay data set” (2004).
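Briefly, cells in 96-well plates were exposed to five compound concentrations for 48 h, and endpoints were estimated by linear interpolation. Abbreviation: GI50, concentration required for 50% inhibition of growth.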 Active and inactive are the calls of the source. Rule as the data show it: active = GI50 up to about 1.1 µM and inactive = higher.

How the values were obtained:
Assay in all cases: growth of human tumour cells (NCI), 48 h
NCI-H522 = system: NCI-H522
HT-29 = system: HT-29
SK-OV-3 = system: SK-OV-3
ACHN = system: ACHN
SN12C = system: SN12C
UACC-62 = system: UACC-62
CCRF-CEM = system: CCRF-CEM
SF-295 = system: SF-295
OVCAR-8 = system: OVCAR-8
HCT-116 = system: HCT-116
SNB-19 = system: SNB-19
TK-10 = system: TK-10
NCI-H23 = system: NCI-H23
RPMI-8226 = system: RPMI-8226
UO-31 = system: UO-31
A498 = system: A498
RXF 393 = system: RXF 393

CCOC(=O)C(C(=O)Cc1ccccc1)c1ccccc1 (stereo not drawn)
GI50 (NCI-H522): > 100 µM (inactive) | GI50 (HT-29): > 100 µM (inactive) | GI50 (SK-OV-3): > 100 µM (inactive) | GI50 (ACHN): > 100 µM (inactive) | GI50 (SN12C): > 100 µM (inactive) | GI50 (UACC-62): > 100 µM (inactive) | GI50 (CCRF-CEM): > 100 µM (inactive) | GI50 (SF-295): > 100 µM (inactive) | GI50 (OVCAR-8): > 100 µM (inactive) | GI50 (HCT-116): > 100 µM (inactive) | GI50 (SNB-19): > 100 µM (inactive) | GI50 (TK-10): > 100 µM (inactive) | GI50 (NCI-H23): > 100 µM (inactive) | GI50 (RPMI-8226): > 100 µM (inactive) | GI50 (UO-31): > 100 µM (inactive)

CC1(C)C2CCC3(C2)CS(=O)(=O)N2OC231 (stereo not drawn)
GI50 (NCI-H522): 13.8 µM (inactive) | GI50 (HT-29): 15.2 µM (inactive) | GI50 (SK-OV-3): 49.7 µM (inactive) | GI50 (ACHN): 15.9 µM (inactive) | GI50 (SN12C): 16.9 µM (inactive) | GI50 (UACC-62): 17.5 µM (inactive) | GI50 (CCRF-CEM): 24.5 µM (inactive) | GI50 (SF-295): > 100 µM (inactive) | GI50 (OVCAR-8): 24.8 µM (inactive) | GI50 (HCT-116): 31.3 µM (inactive) | GI50 (SNB-19): 34.4 µM (inactive) | GI50 (TK-10): 18 µM (inactive) | GI50 (NCI-H23): 16.6 µM (inactive) | GI50 (RPMI-8226): 29.5 µM (inactive) | GI50 (A498): 25.2 µM (inactive) | GI50 (UO-31): 16.1 µM (inactive)

COc1ccc(C(c2ccccc2C(=O)O)c2ccc(OC)c3ccccc23)c2ccccc12
GI50 (NCI-H522): 12.6 µM (inactive) | GI50 (HT-29): 11.9 µM (inactive) | GI50 (SK-OV-3): 23.6 µM (inactive) | GI50 (ACHN): 10.4 µM (inactive) | GI50 (SN12C): 10.9 µM (inactive) | GI50 (UACC-62): 4.71 µM (inactive) | GI50 (CCRF-CEM): 8.79 µM (inactive) | GI50 (SF-295): 11.1 µM (inactive) | GI50 (OVCAR-8): 10.5 µM (inactive) | GI50 (SNB-19): 11.2 µM (inactive) | GI50 (TK-10): 19.9 µM (inactive) | GI50 (NCI-H23): > 10 µM (inactive) | GI50 (RPMI-8226): 3.61 µM (inactive) | GI50 (A498): 16.2 µM (inactive) | GI50 (UO-31): 4.9 µM (inactive)

N#CC1(C2CC(=O)N(c3ccccc3)C2=O)CCCCC1=O (stereo not drawn)
GI50 (RXF 393): > 100 µM (inactive) | GI50 (HT-29): > 100 µM (inactive) | GI50 (SK-OV-3): > 100 µM (inactive) | GI50 (ACHN): > 100 µM (inactive) | GI50 (SN12C): 0.791 µM (active) | GI50 (UACC-62): > 100 µM (inactive) | GI50 (CCRF-CEM): > 100 µM (inactive) | GI50 (SF-295): > 100 µM (inactive) | GI50 (OVCAR-8): > 100 µM (inactive) | GI50 (SNB-19): > 100 µM (inactive) | GI50 (TK-10): > 100 µM (inactive) | GI50 (NCI-H23): > 100 µM (inactive) | GI50 (RPMI-8226): > 100 µM (inactive) | GI50 (UO-31): > 100 µM (inactive)

Cc1c(-c2ccccc2)c(=O)oc2ccc(Cl)cc12
GI50 (NCI-H522): 33.7 µM (inactive) | GI50 (HT-29): > 100 µM (inactive) | GI50 (SK-OV-3): 34.4 µM (inactive) | GI50 (SN12C): > 100 µM (inactive) | GI50 (UACC-62): 59.8 µM (inactive) | GI50 (CCRF-CEM): > 100 µM (inactive) | GI50 (SF-295): > 100 µM (inactive) | GI50 (OVCAR-8): 53.3 µM (inactive) | GI50 (HCT-116): 38.1 µM (inactive) | GI50 (SNB-19): 63 µM (inactive) | GI50 (TK-10): 33.3 µM (inactive) | GI50 (NCI-H23): 57.8 µM (inactive) | GI50 (RPMI-8226): > 100 µM (inactive) | GI50 (A498): > 100 µM (inactive) | GI50 (UO-31): > 100 µM (inactive)

CC(=O)c1cccc(NC(=O)/C(=N\NC(C)(C)C)c2c(O)c3ccccc3oc2=O)c1
GI50 (NCI-H522): > 100 µM (inactive) | GI50 (RXF 393): > 100 µM (inactive) | GI50 (HT-29): 53.2 µM (inactive) | GI50 (SK-OV-3): > 100 µM (inactive) | GI50 (ACHN): > 100 µM (inactive) | GI50 (SN12C): > 100 µM (inactive) | GI50 (UACC-62): > 100 µM (inactive) | GI50 (CCRF-CEM): > 100 µM (inactive) | GI50 (SF-295): > 100 µM (inactive) | GI50 (OVCAR-8): > 100 µM (inactive) | GI50 (HCT-116): > 100 µM (inactive) | GI50 (SNB-19): > 100 µM (inactive) | GI50 (TK-10): > 100 µM (inactive) | GI50 (NCI-H23): > 100 µM (inactive) | GI50 (UO-31): > 100 µM (inactive)

CCCCCC[C@@H]1CCC2C(CO)[C@@H](O)CC[C@@H]2C1 (stereo partly drawn)
GI50 (NCI-H522): 16.3 µM (inactive) | GI50 (HT-29): 18.2 µM (inactive) | GI50 (ACHN): 19.1 µM (inactive) | GI50 (SN12C): 16.6 µM (inactive) | GI50 (UACC-62): 21.3 µM (inactive) | GI50 (CCRF-CEM): 23.6 µM (inactive) | GI50 (SF-295): 16.2 µM (inactive) | GI50 (OVCAR-8): 18.2 µM (inactive) | GI50 (HCT-116): 17.6 µM (inactive) | GI50 (SNB-19): 18.1 µM (inactive) | GI50 (NCI-H23): 16 µM (inactive) | GI50 (RPMI-8226): 25.3 µM (inactive) | GI50 (UO-31): 20.7 µM (inactive)
